# Laboratory results from patent US20080096967A1, “Formulations for Injection of Catecholic Butanes, Including Ndga Compounds, Into Animals” (priority 2005, published 2008).
# Where two headings read alike, the source gives them in different places. Marks after values point to notes of the source that are not given here.
# How the values were obtained:
# [1] = Human Phase 0 three-way crossover microdose pharmacokinetic study of 14C-labelled M4N (AMS); format: in vivo
# Excerpt: This study was designed to assess the absorption of […] when administered to humans as a sub-therapeutic dose either as a single oral dose under fed and fasted conditions or a single intravenous dose (Regimens A-C, respectively, in Table 24). […] During the course of each study period, pharmacokinetic blood samples were taken at specified time points after dosing and urine was collected over pre-defined time intervals. The subjects were able to leave the clinical unit after the completion of study specific procedures at 24 hours post-dose. In this study, […] was administered to humans in a 100 μg quantity. […] Each oral administration of […] consisted of 0.1 mg of ^14C labeled […] and 376.8 mg of glycerol monooleate in a size 0 gelatin capsule. […] The baseline levels of […] were corrected for any residual […] remaining in the subjects following the periods between dosing so as not to inflate the levels of […] for any subsequent dosing.
# [2] = 40 mg/mL M4N/PEG 300 stability: RP-HPLC analysis; format: physicochemical
# Method: The stability of 40 mg/mL M4N dissolved in 100% PEG 300 was evaluated up to 24 hours incubation at 30° C., 45° C. and 60° C. A stock 40 mg/mL M4N in PEG 300 was prepared at 60° C., following the procedure set forth in Example 17. Subsequently, aliquots were removed and incubated at the appropriate temperature. Samples were rotated at 450 rpm during the entire course of incubation. Visual observations and RP-HPLC data were collected throughout. […] The formation of crystals coincided with a loss of soluble M4N (Table 30). The 40 mg/mL M4N/PEG 300 samples incubated at 45° C. and 60° C. were stable after 24 hours incubation as assessed by visual observations and RP-HPLC analysis (Tables 29 and 30).
# [3] = Solubility of M4N in non-ionic surfactants (Table 21, visual inspection); format: physicochemical
# Method: A 10 mL solution of M4N at a concentration of about 60 mg/mL in Tween® 20 was made as follows. About 10 mL of Tween® 20 were added to a glass beaker containing a stir bar. The beaker was placed on a magnetic plate and the stir bar was set to stir at medium speed. About 600 mg of M4N were slowly added to the Tween® 20 in the center of the beaker with the aid of a spatula to prevent M4N from sticking to the beaker wall. The M4N/Tween® 20 mixture was stirred for 2 hr or until all M4N had dissolved or was uniformly suspended without any clumps being present. The M4N/Tween® 20 mixture was heated at about 60° C. for about 30 min. (or longer if a larger volume of solution was desired, for example, 1 hr at 60° C. for 500 mL of the M4N/Tween® 20 mixture), or longer as need to ensure complete dissolution of M4N. […] The final M4N/Tween® 20 solution was stored at room temperature and was kept protected from light. If crystals were to form during storage, the M4N/Tween® 20 solution could be heated again at 60° C. for about 1 hr, with stirring, on a hot magnetic plate or until all M4N was dissolved back in solution.
# This process may be scaled up or down to obtain the requisite volume or concentration of M4N and the heating temperature may be increased or decreased to achieve dissolution of M4N. Formulations containing M4N in other non-ionic surfactant, ionic surfactants or amphiphilic molecules may be similarly made, such as, for example, by substituting Tween® 20 in the process described above with Tween® 80, other solubilizing agents, and combinations thereof.
smiles,measurement,setting,value
"COc1ccc(C[C@@H](C)[C@@H](C)Cc2ccc(OC)c(OC)c2)cc1OC [Formulation M4N, meso-1,4-bis(3,4-dimethoxyphenyl)-2,3-dimethylbutane]",T½,"[1]; Regimen A (oral, fed): 100 μg single oral dose following a high fat breakfast, 14C, baseline corrected, mean ± SD",96.5 ± 20.7 h
same,Cmax,"[1]; Regimen A (oral, fed): 100 μg single oral dose following a high fat breakfast, 14C, baseline corrected, mean ± SD, read-out: Cmax",5.94 ± 1.33 pM
same,Tmax,"[1]; Regimen A (oral, fed): 100 μg single oral dose following a high fat breakfast, 14C, baseline corrected, median",2.50^a hours
same,T½,"[1]; Regimen B (oral, fasted): 100 μg single oral dose following an overnight fast, 14C, baseline corrected, mean ± SD",50.9 ± 22.4 h
same,Cmax,"[1]; Regimen B (oral, fasted): 100 μg single oral dose following an overnight fast, 14C, baseline corrected, mean ± SD, read-out: Cmax",9.29 ± 1.4 pM
same,Tmax,"[1]; Regimen B (oral, fasted): 100 μg single oral dose following an overnight fast, 14C, baseline corrected, median",1.00^a hours
same,T½,"[1]; Regimen C (Intravenous): 100 μg as 1 mL bolus intravenous solution following an overnight fast, 14C, baseline corrected, mean ± SD",116.2 ± 64.0 h
same,Cmax,"[1]; Regimen C (Intravenous): 100 μg as 1 mL bolus intravenous solution following an overnight fast, 14C, baseline corrected, mean ± SD, read-out: Cmax",10.3 ± 1.77 pM
same,Tmax,"[1]; Regimen C (Intravenous): 100 μg as 1 mL bolus intravenous solution following an overnight fast, 14C, baseline corrected, median",0.08^a hours
same,Tmax,"[1]; intravenous dose, eight of the ten subjects (first sampling time)",0.08 h
same,Tmax,"[1]; intravenous dose, two subjects",0.17 h
same,Cmax,"[1]; oral 100 μg 14C-labelled M4N after a high fat breakfast, mean±SD, read-out: Cmax for total 14C",5.94 ± 1.33 pM
same,Cmax,"[1]; oral 100 μg 14C-labelled M4N after an overnight fast, mean±SD, read-out: Cmax for total 14C",9.29 ± 1.4 pM
same,apparent absorption,"[1]; oral administration, fed and fasted state",very high
same,Tmax,"[1]; oral, fasted subjects",~1 h
same,Cmax,"[1]; single intravenous dose 100 μg in 30% HP-β-CD, 25% PEG, mean±SD, read-out: Cmax for total 14C",10.3 ± 1.77 pM
same,impurities peaks,"[2]; 40 mg/mL M4N/PEG 300, 30° C., 45° C. and 60° C.",No changes
same,loss in soluble M4N,"[2]; 40 mg/mL M4N/PEG 300, 24 hours at 30° C.",> 5%
same,Stability at Room Temperature,"[3]; 50% Tween ® 20, 50% PEG 400, M4N 30 mg/mL",>3 days
same,Dissolution After Heating,"[3]; 50% Tween ® 20, 50% PEG 400, M4N 30 mg/mL, heating at 65° C.",Y at 65 °C
same,Stability at Room Temperature,"[3]; 50% Tween ® 20, 50% PEG 400, M4N 40 mg/mL",>3 days
same,Dissolution After Heating,"[3]; 50% Tween ® 20, 50% PEG 400, M4N 40 mg/mL, heating at 65° C.",Y at 65 °C
same,Stability at Room Temperature,"[3]; 50% Tween ® 20, 50% PEG 400, M4N 50 mg/mL",>3 days
same,Dissolution After Heating,"[3]; 50% Tween ® 20, 50% PEG 400, M4N 50 mg/mL, heating at 65° C.",Y at 65 °C
same,Stability at Room Temperature,"[3]; 50% Tween ® 20, 50% PEG 400, M4N 60 mg/mL",>3 days
same,Dissolution After Heating,"[3]; 50% Tween ® 20, 50% PEG 400, M4N 60 mg/mL, heating at 65° C.",Y at 65 °C
same,stable at room temperature,"[3]; 50% Tween® 20 and 50% PEG 400, after cooling",more than 3 days
same,Stability at Room Temperature,"[3]; Tween ® 20 100% (v/v), M4N 1 mg/mL",>7 days
same,Stability at Room Temperature,"[3]; Tween ® 20 100% (v/v), M4N 10 mg/mL",>7 days
same,Dissolution After Heating,"[3]; Tween ® 20 100% (v/v), M4N 10 mg/mL, heating at 50° C.",Y at 50 °C
same,Stability at Room Temperature,"[3]; Tween ® 20 100% (v/v), M4N 20 mg/mL",>7 days
same,Dissolution After Heating,"[3]; Tween ® 20 100% (v/v), M4N 20 mg/mL, heating at 50° C.",Y at 50 °C
same,Stability at Room Temperature,"[3]; Tween ® 20 100% (v/v), M4N 40 mg/mL",<3 days
same,Dissolution After Heating,"[3]; Tween ® 20 100% (v/v), M4N 40 mg/mL, heating at 50° C.",Y at 50 °C
same,Stability at Room Temperature,"[3]; Tween ® 20 100% (v/v), M4N 60 mg/mL",<3 days
same,Dissolution After Heating,"[3]; Tween ® 20 100% (v/v), M4N 60 mg/mL, heating at 50° C.",Y at 50 °C
same,Dissolution After Heating,"[3]; Tween ® 20 100% (v/v), M4N 80 mg/mL, heating at 50° C.",Y at 50 °C
same,Dissolution After Heating,"[3]; Tween ® 20 100% (v/v), M4N 100 mg/mL, heating at 50° C.",Y at 50 °C
same,Stability at Room Temperature,"[3]; Tween ® 80 100% (v/v), M4N 1 mg/mL",>3 days
same,Stability at Room Temperature,"[3]; Tween ® 80 100% (v/v), M4N 10 mg/mL",>3 days
same,Dissolution After Heating,"[3]; Tween ® 80 100% (v/v), M4N 10 mg/mL, heating at 50° C.",Y at 50 °C
same,Stability at Room Temperature,"[3]; Tween ® 80 100% (v/v), M4N 50 mg/mL",<1 days
same,Dissolution After Heating,"[3]; Tween ® 80 100% (v/v), M4N 50 mg/mL, heating at 50° C.",Y at 50 °C
same,stable at room temperature,"[3]; Tween® 20, M4N 1 mg/mL",more than 7 days
same,stable at room temperature,"[3]; Tween® 20, M4N 10 mg/mL and 20 mg/mL",more than 7 days
same,stable at room temperature,"[3]; Tween® 20, M4N 40 mg/mL and 80 mg/mL",less than 3 days
same,solution upon cooling,"[3]; Tween® 20, M4N 80 mg/mL and 100 mg/mL",becoming insoluble upon cooling
same,concentrations at which M4N remained in solution after cooling,"[3]; Tween® 20, dissolved at 50° C.",up to 60 mg/mL
same,stable at room temperature,"[3]; Tween® 80, M4N 1 mg/mL",more than 3 days
same,stable at room temperature,"[3]; Tween® 80, M4N 10 mg/mL",more than 3 days
same,stable at room temperature,"[3]; Tween® 80, M4N 50 mg/mL",less than 1 day
same,concentrations at which M4N remained in solution after cooling,"[3]; Tween® 80, dissolved at 50° C.",up to 50 mg/mL
